Reference: US20240424111A1, “Degrader Compounds and Uses Thereof” (CALICO LIFE SCIENCES LLC, priority 2021, published 2024)

Assays:
PTPN2 [1] = molecular target: T1, PTPN2 (Homo sapiens, UniProt P17706); assay: HiBiT PTPN2 degradation in 293T.109 (HiBiT-PTPN2) cells, 24 hours; assay type: cell-based; conditions: 293T.109 cells
T1 construct: expressed in transfected cells; host or cells: 293T.109 (HiBiT-PTPN2), derived from 293T WT (ATCC)
T1 sequence (P17706 1-415): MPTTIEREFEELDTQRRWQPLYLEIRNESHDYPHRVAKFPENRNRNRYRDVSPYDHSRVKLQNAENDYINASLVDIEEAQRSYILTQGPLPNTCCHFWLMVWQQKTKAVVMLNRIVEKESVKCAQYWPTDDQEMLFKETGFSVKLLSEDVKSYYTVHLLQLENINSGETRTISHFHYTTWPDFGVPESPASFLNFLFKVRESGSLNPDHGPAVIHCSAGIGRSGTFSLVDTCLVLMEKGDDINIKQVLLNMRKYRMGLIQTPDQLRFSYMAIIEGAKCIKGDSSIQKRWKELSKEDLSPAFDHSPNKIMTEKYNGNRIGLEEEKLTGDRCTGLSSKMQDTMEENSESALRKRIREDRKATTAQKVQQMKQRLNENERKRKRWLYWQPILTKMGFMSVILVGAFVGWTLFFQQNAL
Source text: Dulbecco's modified Eagle medium (DMEM) without phenol red and fetal bovine serum (FBS) were purchased from Gibco (Grand Island, NY, USA). Nano-Glo® HiBiT Lytic Assay System was purchased from Promega (Medison, WI, USA). 293T. 109 (HiBiT-PTPN2) cell line was generated by ectopically expressing PTPN2 with N-terminal HiBiT fusion tag in 293T WT cell line purchased from ATCC (Manassas, VA, USA). Cell culture flasks and 384-well microplates were acquired from VWR (Radnor, PA, USA).
PTPN2 Degradation Analysis
(§1) PTPN2 degradation was determined based on quantification of luminescent signal using Nano-Glo® HiBiT Lytic Assay kit. Test compounds were added to the 384-well plate from a top concentration of 10 μM with 11 points, half log titration in duplicates. 293T. 109 cells were added into 384-well plates at a cell density of 5000 cells per well. The plates were kept at 37° C. with 5% CO2 for 24 hours. The cells treated in the absence of the test compound were the negative control and the cells without Nano-Glo® HiBiT Lytic reagent were the positive control. After 24-hour incubation, Nano-Glo® HiBiT Lytic Assay reagents were added to the cells. Luminescence was acquired on EnVision™ Multilabel Reader (PerkinElmer, Santa Clara, CA, USA).

PTPN2 [2] = molecular target: T2, PTPN2 (Mus musculus, UniProt Q06180); assay: HiBiT PTPN2 degradation in B16F10.4 cells, 24 hours; assay type: cell-based
T2 construct: HiBiT; host or cells: B16F10.4
T2 sequence (Q06180 1-406): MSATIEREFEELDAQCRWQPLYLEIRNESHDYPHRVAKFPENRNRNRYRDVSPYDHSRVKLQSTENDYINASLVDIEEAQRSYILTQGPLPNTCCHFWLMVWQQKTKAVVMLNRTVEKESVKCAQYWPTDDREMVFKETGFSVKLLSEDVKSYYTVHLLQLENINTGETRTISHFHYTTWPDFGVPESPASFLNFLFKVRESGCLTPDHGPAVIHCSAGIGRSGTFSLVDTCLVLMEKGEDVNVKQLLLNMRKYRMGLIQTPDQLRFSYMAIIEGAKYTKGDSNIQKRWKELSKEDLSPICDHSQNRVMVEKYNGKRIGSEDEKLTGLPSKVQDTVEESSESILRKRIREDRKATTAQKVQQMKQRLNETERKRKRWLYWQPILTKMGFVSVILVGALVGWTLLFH
Experimental: as §1

SMILES	DC50 (PTPN2 [1]) [nM]	DC50 (PTPN2 [2]) [nM]
Cn1c(=O)n(C2CCC(=O)NC2=O)c2ccc(C3CCN(CCNC(=O)c4ccc5c(F)c(N6CC(=O)NS6(=O)=O)c(O)cc5c4)CC3(F)F)cc21 (centres unmarked) [Degrader 59]	150 to 500	50 to 150
Cn1nc(C2CCC(=O)NC2=O)c2ccc(C3CCN(CCNC(=O)c4ccc5c(F)c(N6CC(=O)NS6(=O)=O)c(O)cc5c4)CC3(F)F)cc21 (centres unmarked) [Degrader 61]	150 to 500	150 to 500
Cn1c(=O)n(C2CCC(=O)NC2=O)c2cccc(N3CCC(CCNC(=O)Nc4ccc5c(F)c(N6CC(=O)NS6(=O)=O)c(O)cc5c4)CC3)c21 (centres unmarked) [Degrader 62]	150 to 500	150 to 500
CCn1c(=O)n(C2CCC(=O)NC2=O)c2ccc(C3CCN([C@H](CO)C(=O)Nc4ccc5c(F)c(N6CC(=O)NS6(=O)=O)c(O)cc5c4)CC3)cc21 (some centres unmarked) [Degrader 63]	< 50	< 50
CCn1c(=O)n(C2CCC(=O)NC2=O)c2ccc(C3CCN([C@@H](CO)C(=O)Nc4ccc5c(F)c(N6CC(=O)NS6(=O)=O)c(O)cc5c4)CC3)cc21 (some centres unmarked) [Degrader 64]	< 50	50 to 150
C[C@H]1CN(CC(=O)Nc2ccc3c(F)c(N4CC(=O)NS4(=O)=O)c(O)cc3c2)CCN1c1cc2c(cc1F)n(C1CCC(=O)NC1=O)c(=O)n2C (some centres unmarked) [Degrader 65]	150 to 500	≥ 500
C[C@H]1CN(CC(=O)Nc2ccc3c(F)c(N4CC(=O)NS4(=O)=O)c(O)cc3c2)CCN1c1ccc2c(c1F)n(C)c(=O)n2C1CCC(=O)NC1=O (some centres unmarked) [Degrader 66]	150 to 500	≥ 500
Cn1c(=O)n(C2CCC(=O)NC2=O)c2ccc(N3CCC(O)(CC(=O)N4CC(Oc5ccc6cc(O)c(N7CC(=O)NS7(=O)=O)c(F)c6c5)C4)CC3)cc21 (centres unmarked) [Degrader 67]	150 to 500	150 to 500
Cn1c(=O)n(C2CCC(=O)NC2=O)c2ccc(N3CCC(CC4CC4C(=O)Nc4ccc5c(F)c(N6CC(=O)NS6(=O)=O)c(O)cc5c4)CC3)cc21 (centres unmarked) [Degrader 68]	50 to 150	50 to 150
Cn1c(=O)n(C2CCC(=O)NC2=O)c2cc(F)c(N3CCC(O)(CC(=O)Nc4ccc5c(F)c(N6CC(=O)NS6(=O)=O)c(O)cc5c4)CC3)cc21 (centres unmarked) [Degrader 74]	< 50	150 to 500
Cn1c(=O)n(C2CCC(=O)NC2=O)c2ccc3c(c21)CCCN3C1CCN(CC(=O)Nc2ccc3c(F)c(N4CC(=O)NS4(=O)=O)c(O)cc3c2)CC1 (centres unmarked) [Degrader 75]	≥ 500	≥ 500
Cn1c(=O)n(C2CCC(=O)NC2=O)c2ccc(C3CCN(C/C=C/c4ccc5c(F)c(N6CC(=O)NS6(=O)=O)c(O)cc5c4)CC3)cc21 (centres unmarked) [Degrader 78]	150 to 500	≥ 500
Cn1c(=O)n(C2CCC(=O)NC2=O)c2ccc(N3CCC4(CC3)CN(CC(=O)Nc3ccc5c(F)c(N6CC(=O)NS6(=O)=O)c(O)cc5c3)C4)cc21 (centres unmarked) [Degrader 84]	50 to 150	150 to 500
O=C1CCC(n2c3ccc(CCCCNC(=O)Nc4ccc5c(F)c(N6CC(=O)NS6(=O)=O)c(O)cc5c4)cc3c3cccnc32)C(=O)N1 (centres unmarked) [Degrader 86]	≥ 500	≥ 500
Cn1c(=O)n(C2CCC(=O)NC2=O)c2ccc(N3CCC(CNC(=O)Nc4ccc5c(F)c(N6CC(=O)NS6(=O)=O)c(O)cc5c4)CC3)cc21 (centres unmarked) [Degrader 89]	50 to 150	50 to 150
C[C@H]1CN(c2ccc3c(c2)n(C)c(=O)n3C2CCC(=O)NC2=O)CCN1CC(=O)Nc1ccc2c(F)c(N3CC(=O)NS3(=O)=O)c(O)cc2c1 (some centres unmarked) [Degrader 90]	150 to 500	50 to 150
C[C@@H]1CN(c2ccc3c(c2)n(C)c(=O)n3C2CCC(=O)NC2=O)CCN1CC(=O)Nc1ccc2c(F)c(N3CC(=O)NS3(=O)=O)c(O)cc2c1 (some centres unmarked) [Degrader 91]	50 to 150	150 to 500
Cn1c(=O)n(C2CCC(=O)NC2=O)c2ccc(N3CC4(CCN(CC(=O)Nc5ccc6c(F)c(N7CC(=O)NS7(=O)=O)c(O)cc6c5)CC4)C3)cc21 (centres unmarked) [Degrader 92]	150 to 500	≥ 500
Cn1c(=O)n(C2CCC(=O)NC2=O)c2ccc(N3CCN(CNC(=O)Nc4ccc5c(F)c(N6CC(=O)NS6(=O)=O)c(O)cc5c4)CC3)cc21 (centres unmarked) [Degrader 93]	50 to 150	50 to 150

Results, then the compound that gave them:

DC50 (PTPN2 [1]) [nM]	DC50 (PTPN2 [2]) [nM]	SMILES
150 to 500	50 to 150	Cn1c(=O)n(C2CCC(=O)NC2=O)c2ccc(-c3ccc(CC(=O)Nc4ccc5c(F)c(N6CC(=O)NS6(=O)=O)c(O)cc5c4)cc3)nc21 (centres unmarked) [Degrader 60]
150 to 500	150 to 500	COc1cc(CC(=O)Nc2ccc3c(F)c(N4CC(=O)NS4(=O)=O)c(O)cc3c2)ccc1-c1ccc2c(c1)n(C)c(=O)n2C1CCC(=O)NC1=O (centres unmarked) [Degrader 69]
< 50	< 50	Cc1nn(CC(=O)Nc2ccc3c(F)c(N4CC(=O)NS4(=O)=O)c(O)cc3c2)c(C)c1-c1ccc2c(c1)n(C)c(=O)n2C1CCC(=O)NC1=O (centres unmarked) [Degrader 70]
50 to 150	50 to 150	Cn1c(=O)n(C2CCC(=O)NC2=O)c2ccc(Nc3ccc(CC(=O)Nc4ccc5c(F)c(N6CC(=O)NS6(=O)=O)c(O)cc5c4)cc3F)cc21 (centres unmarked) [Degrader 71]
< 50	50 to 150	Cn1c(=O)n(C2CCC(=O)NC2=O)c2ccc(Nc3cccc(CC(=O)Nc4ccc5c(F)c(N6CC(=O)NS6(=O)=O)c(O)cc5c4)c3)cc21 (centres unmarked) [Degrader 72]
50 to 150	50 to 150	Cn1c(=O)n(C2CCC(=O)NC2=O)c2ccc(-c3ccc(NC(=O)Nc4ccc5c(F)c(N6CC(=O)NS6(=O)=O)c(O)cc5c4)cc3)cc21 (centres unmarked) [Degrader 73]
50 to 150	50 to 150	Cn1c(=O)n(C2CCC(=O)NC2=O)c2ccc(Oc3ccc(CC(=O)Nc4ccc5c(F)c(N6CC(=O)NS6(=O)=O)c(O)cc5c4)cc3)cc21 (centres unmarked) [Degrader 76]
150 to 500	≥ 500	Cn1c(=O)n(C2CCC(=O)NC2=O)c2ccc(-c3cccc(CC(=O)Nc4ccc5c(F)c(N6CC(=O)NS6(=O)=O)c(O)cc5c4)c3)cc21 (centres unmarked) [Degrader 77]
50 to 150	50 to 150	Cc1cc(-c2ccc3c(c2)n(C)c(=O)n3C2CCC(=O)NC2=O)ccc1CC(=O)Nc1ccc2c(F)c(N3CC(=O)NS3(=O)=O)c(O)cc2c1 (centres unmarked) [Degrader 79]
< 50	150 to 500	Cn1c(=O)n(C2CCC(=O)NC2=O)c2ccc(-c3cccc(CCC(=O)Nc4ccc5c(F)c(N6CC(=O)NS6(=O)=O)c(O)cc5c4)c3)cc21 (centres unmarked) [Degrader 80]
50 to 150	50 to 150	Cc1cc(CC(=O)Nc2ccc3c(F)c(N4CC(=O)NS4(=O)=O)c(O)cc3c2)ccc1Oc1ccc2c(c1)n(C)c(=O)n2C1CCC(=O)NC1=O (centres unmarked) [Degrader 81]
150 to 500	150 to 500	Cn1cc(C(=O)Nc2ccc3c(F)c(N4CC(=O)NS4(=O)=O)c(O)cc3c2)c2ccc(-c3ccc4c(c3)n(C)c(=O)n4C3CCC(=O)NC3=O)cc21 (centres unmarked) [Degrader 82]
< 50	< 50	Cn1c(=O)n(C2CCC(=O)NC2=O)c2ccc(-c3cc4cnn(CC(=O)Nc5ccc6c(F)c(N7CC(=O)NS7(=O)=O)c(O)cc6c5)c4cc3F)cc21 (centres unmarked) [Degrader 83]
150 to 500	150 to 500	Cc1nn(C2CCC(=O)NC2=O)c2ccc(-c3ccc(CC(=O)Nc4ccc5c(F)c(N6CC(=O)NS6(=O)=O)c(O)cc5c4)cc3)cc12 (centres unmarked) [Degrader 85]
50 to 150	50 to 150	Cc1cc(CC(=O)Nc2ccc3c(F)c(N4CC(=O)NS4(=O)=O)c(O)cc3c2)ccc1N(C)c1ccc2c(c1)n(C)c(=O)n2C1CCC(=O)NC1=O (centres unmarked) [Degrader 87]
150 to 500	≥ 500	Cn1c(=O)n(C2CCC(=O)NC2=O)c2ccc(-n3ccc(CC(=O)Nc4ccc5c(F)c(N6CC(=O)NS6(=O)=O)c(O)cc5c4)n3)cc21 (centres unmarked) [Degrader 88]
150 to 500	50 to 150	Cc1cc(C(C)C(=O)Nc2ccc3c(F)c(N4CC(=O)NS4(=O)=O)c(O)cc3c2)ccc1Nc1ccc2c(c1)n(C)c(=O)n2C1CCC(=O)NC1=O (centres unmarked) [Degrader 94]
< 50	< 50	Cc1nn(CC(=O)Nc2ccc3c(F)c(N4CC(=O)NS4(=O)=O)c(O)cc3c2)c2ccc(-c3ccc4c(c3)n(C)c(=O)n4C3CCC(=O)NC3=O)cc12 (centres unmarked) [Degrader 95]
